In ChEMBL document CHEMBL5518228, “DNA Interaction and Cleavage Modes of Anthraquinone-Fused Enediynes: A Study on Tiancimycins, Yangpumicins, and Their Semisynthetic Analogues” (J Med Chem, 2024):
The source made the active and inactive calls. The calls are words filed in the database; no cut-off is given here.

How the values were obtained:
[1] = Cytotoxicity against human KPL-4 cells incubated for 72 hrs by CCK-8 assay; assay type: functional, cell-based; conditions: KPL4, 72 h
[2] = Cytotoxicity against human NCM460 cells incubated for 72 hrs by CCK-8 assay; assay type: toxicity, cell-based
[3] = tested on: A549; assay: Cytotoxicity against human A549 cells incubated for 72 hrs by CCK-8 assay; assay type: functional, cell-based; conditions: A549, 72 h
[4] = tested on: Caco-2; assay: Cytotoxicity against human Caco-2 cells incubated for 72 hrs by CCK-8 assay; assay type: functional, cell-based; conditions: Caco-2, 72 h
[5] = tested on: Jurkat; assay: Cytotoxicity against human Jurkat cells incubated for 72 hrs by CCK-8 assay; assay type: functional, cell-based
[6] = tested on: Supercoiled DNA; assay: Induction of supercoiled pBR322 DNA (unknown origin) cleavage assessed as relaxation of supercoiled plasmid incubated for 1 hr in presence of DTT by SYBR I Green staining based agarose gel electrophoresis analysis; assay type: nucleic-acid assay
[7] = tested on: DNA; assay: Induction of duplex DNA (unknown origin) cleavage assessed as DNA cleaved fragments at AT-rich region at 1 mM incubated for 6 hr in presence of DTT by agarose gel electrophoresis analysis; assay type: nucleic-acid assay
[8] = Cytotoxicity against human HUVEC cells incubated for 72 hrs by CCK-8 assay; assay type: toxicity, cell-based
[9] = tested on: Calf thymus DNA; assay: Binding affinity to calf thymus DNA assessed as change in gibbs free energy in presence of ethidium bromide by competitive binding based fluorescence spectroscopic analysis; assay type: nucleic-acid assay; conditions: Bos taurus
[10] = tested on: Calf thymus DNA; assay: Binding affinity to calf thymus DNA assessed as DNA insertion by measuring change in gibbs free energy in presence of triggered form of compound by fluorescence spectroscopic analysis; assay type: nucleic-acid assay; conditions: Bos taurus
[11] = tested on: Calf thymus DNA; assay: Binding affinity to calf thymus DNA assessed as DNA insertion by measuring change in gibbs free energy by fluorescence spectroscopic analysis; assay type: nucleic-acid assay; conditions: Bos taurus
[12] = tested on: DNA; assay: Induction of duplex DNA (unknown origin) cleavage assessed as DNA cleaved fragments at AT-rich region at 100 uM incubated for 6 hr in presence of DTT by agarose gel electrophoresis analysis; assay type: nucleic-acid assay
[13] = tested on: Supercoiled DNA; assay: Induction of supercoiled pBR322 DNA (unknown origin) cleavage at 0.5 uM incubated for 1 hr in presence of pyridine under pH 7.4 condition by agarose gel electrophoresis analysis; assay type: nucleic-acid assay
[14] = tested on: Supercoiled DNA; assay: Induction of supercoiled pBR322 DNA (unknown origin) cleavage at 0.5 uM incubated for 1 hr in presence of methanol under pH 7.4 condition by agarose gel electrophoresis analysis; assay type: nucleic-acid assay
[15] = tested on: Supercoiled DNA; assay: Induction of supercoiled pBR322 DNA (unknown origin) cleavage at 0.5 uM incubated for 1 hr in presence of catalase under pH 7.4 condition by agarose gel electrophoresis analysis; assay type: nucleic-acid assay
[16] = tested on: Supercoiled DNA; assay: Induction of supercoiled pBR322 DNA (unknown origin) cleavage at 0.5 uM incubated for 1 hr under pH 7.5 condition by agarose gel electrophoresis analysis; assay type: nucleic-acid assay
[17] = tested on: Supercoiled DNA; assay: Induction of supercoiled pBR322 DNA (unknown origin) cleavage at 0.5 uM incubated for 1 hr in presence of ethanol under pH 7.4 condition by agarose gel electrophoresis analysis; assay type: nucleic-acid assay
[18] = tested on: Supercoiled DNA; assay: Induction of supercoiled pBR322 DNA (unknown origin) cleavage at 0.5 uM incubated for 1 hr in presence of mannitol under pH 7.4 condition by agarose gel electrophoresis analysis; assay type: nucleic-acid assay
[19] = tested on: Supercoiled DNA; assay: Induction of supercoiled pBR322 DNA (unknown origin) cleavage at 0.5 uM incubated for 1 hr under pH 5.5 to 9.5 condition by agarose gel electrophoresis analysis; assay type: nucleic-acid assay
[20] = tested on: Supercoiled DNA; assay: Induction of supercoiled pBR322 DNA (unknown origin) cleavage at 100 nM incubated for 1 hr in presence of actinomycin D by agarose gel electrophoresis analysis; assay type: nucleic-acid assay
[21] = tested on: Supercoiled DNA; assay: Induction of supercoiled pBR322 DNA (unknown origin) cleavage at 100 nM incubated for 1 hr in presence of adriamycin by agarose gel electrophoresis analysis; assay type: nucleic-acid assay
[22] = Toxicity in BALB/c mouse xenografted with human KPL-4 cells assessed as body weight loss at 0.05 mg/kg,iv administrated once per week for 2 weeks; assay type: organism-based; conditions: in vivo, 336 h
[23] = tested on: Supercoiled DNA; assay: Induction of supercoiled pBR322 DNA (unknown origin) cleavage at 100 nM incubated for 1 hr in presence of bleomycin by agarose gel electrophoresis analysis; assay type: nucleic-acid assay
[24] = tested on: Supercoiled DNA; assay: Induction of supercoiled pBR322 DNA (unknown origin) cleavage at 100 nM incubated for 1 hr in presence of 10 uM of actinomycin D by agarose gel electrophoresis analysis; assay type: nucleic-acid assay
[25] = tested on: Supercoiled DNA; assay: Induction of supercoiled pBR322 DNA (unknown origin) cleavage at 100 nM incubated for 1 hr in presence of NADPH by agarose gel electrophoresis analysis; assay type: nucleic-acid assay
[26] = tested on: Supercoiled DNA; assay: Induction of supercoiled pBR322 DNA (unknown origin) cleavage at 100 nM incubated for 1 hr in presence of DTT by agarose gel electrophoresis analysis; assay type: nucleic-acid assay
[27] = tested on: Supercoiled DNA; assay: Induction of supercoiled pBR322 DNA (unknown origin) cleavage at 100 nM incubated for 1 hr in presence of 10 uM of adriamycin by agarose gel electrophoresis analysis; assay type: nucleic-acid assay
[28] = tested on: Supercoiled DNA; assay: Induction of supercoiled pBR322 DNA (unknown origin) cleavage at 100 nM incubated for 1 hr in presence of bleomycin and ferrous ion by agarose gel electrophoresis analysis; assay type: nucleic-acid assay
[29] = tested on: Supercoiled DNA; assay: Induction of supercoiled pBR322 DNA (unknown origin) cleavage at 100 nM incubated for 1 hr in presence of GSH by agarose gel electrophoresis analysis; assay type: nucleic-acid assay
[30] = tested on: Supercoiled DNA; assay: Induction of supercoiled pBR322 DNA (unknown origin) cleavage at 5 uM incubated for 1 hr in presence of catalase under pH 7.4 condition by agarose gel electrophoresis analysis; assay type: nucleic-acid assay
[31] = tested on: Supercoiled DNA; assay: Induction of supercoiled pBR322 DNA (unknown origin) cleavage at 5 uM incubated for 1 hr in presence of ethanol under pH 7.4 condition by agarose gel electrophoresis analysis; assay type: nucleic-acid assay
[32] = tested on: Supercoiled DNA; assay: Induction of supercoiled pBR322 DNA (unknown origin) cleavage at 5 uM incubated for 1 hr in presence of mannitol under pH 7.4 condition by agarose gel electrophoresis analysis; assay type: nucleic-acid assay
[33] = tested on: Supercoiled DNA; assay: Induction of supercoiled pBR322 DNA (unknown origin) cleavage at 5 uM incubated for 1 hr in presence of pyridine under pH 7.4 condition by agarose gel electrophoresis analysis; assay type: nucleic-acid assay
[34] = tested on: Supercoiled DNA; assay: Induction of supercoiled pBR322 DNA (unknown origin) cleavage at 5 uM incubated for 1 hr in presence of methanol under pH 7.4 condition by agarose gel electrophoresis analysis; assay type: nucleic-acid assay
[35] = tested on: Supercoiled DNA; assay: Induction of supercoiled pBR322 DNA (unknown origin) cleavage at 5 uM incubated for 1 hr under pH 5.5 to 9.5 condition by agarose gel electrophoresis analysis; assay type: nucleic-acid assay
[36] = tested on: DNA; assay: Induction of duplex DNA (unknown origin) cleavage assessed as DNA cleaved fragments at GC-rich region at 17.5 uM incubated for 1 hr in presence of FeSO4.7H2O by agarose gel electrophoresis analysis; assay type: nucleic-acid assay

Molecule	IC50 [1] [nM]	IC50 at 72 h [2] [nM]	IC50 [3] [nM]	IC50 [4] [nM]	IC50 [5] [nM]	EC50 [6] [nM]	IC50 at 72 h [8] [nM]	deltaG [9] [kcal/mol]	Activity [12]	other results
COc1ccc2c(c1OC)C(=O)c1c3c(cc(OC)c1C2=O)[C@@]12O[C@@]1([C@@H](C)O)[C@H](C#C/C=C\C#C[C@H]2O)N3	32.8	382	787	635	117	> 1000	525			Activity [7]: inactive
COC1=C(C(=O)O)[C@H](C)[C@@]23O[C@]24c2cc(O)c5c(c2N[C@H]3C#C/C=C\C#CC14)C(=O)c1c(O)ccc(O)c1C5=O								2.62		deltaG [10]: -13.6 kcal/mol; deltaG [11]: -18.1 kcal/mol
COc1cc(Br)c2c(c1O)C(=O)c1c3c(cc(O)c1C2=O)[C@@]12O[C@@]1([C@@H](C)O)[C@H](C#C/C=C\C#C[C@H]2O)N3	0.31	3.3	11	154	2.6	79	22.7	-8.13	Active	
COC1=C(C(=O)O)[C@H](C)[C@@]23O[C@]24c2cc(O)c5c(c2N[C@H]3C#C/C=C\C#CC14)C(=O)c1ccccc1C5=O								-3.79		
COC(=O)[C@@H](O)[C@@](C)(O)[C@@]12O[C@]13c1cc(O)c4c(c1N[C@H]2C#C/C=C\C#C[C@H]3O)C(=O)c1c(O)c(OC)cc(-n2[nH]c(=O)n(-c3ccccc3)c2=O)c1C4=O	23.7	227	499	613	44.7	33.2	946		inactive	
COC(=O)[C@@H](O)[C@@](C)(O)[C@@]12O[C@]13c1cc(O)c4c(c1N[C@H]2C#C/C=C\C#C[C@H]3O)C(=O)c1c(ccc(OC)c1O)C4=O	0.04	0.4	0.1	0.4	0.4	248	0.4	-8.56	Active	Activity [13]: Active; Activity [14]: Active; Activity [15]: Active; Activity [16]: Active; Activity [17]: Active; Activity [18]: Active
COc1ccc2c(c1O)C(=O)c1c3c(cc(O)c1C2=O)[C@@]12O[C@@]1([C@@H](C)O)[C@H](C#C/C=C\C#C[C@H]2O)N3	0.02	0.2	0.04	0.4	0.05	38.9	0.2	-8.26	Active	Activity [19]: Active; deltaG [10]: -17.8 kcal/mol; Activity [20]: inactive; deltaG [11]: -20.5 kcal/mol; Activity [21]: inactive; Activity [13]: Active; Activity [22]: Toxic; Activity [23]: Active; Activity [14]: Active; Activity [15]: Active; Activity [24]: inactive; Activity [25]: inactive; Activity [26]: Active; Activity [17]: Active; Activity [18]: Active; Activity [27]: inactive; Activity [28]: Active
O=C1c2ccccc2C(=O)c2c3c(cc(O)c21)[C@@]12O[C@@]1([C@H](O)CO)[C@H](C#C/C=C\C#C[C@H]2O)N3	0.004	0.1	0.2	5.4	0.01	83.3	0.3	-8.31	Active	Activity [25]: inactive; Activity [26]: Active; Activity [29]: Active
COc1cccc2c1C(=O)c1c(O)c3c(c(O)c1C2=O)C[C@@](O)(C(=O)CO)C[C@@H]3O[C@H]1C[C@H](N)[C@H](O)[C@H](C)O1								-9.68		
COC(=O)[C@@H](O)[C@@](C)(O)[C@@]12O[C@]13c1cc(O)c4c(c1N[C@H]2C#C/C=C\C#C[C@H]3O)C(=O)c1cc(OC)ccc1C4=O	0.5	2.8	2.8	6.8	0.1	583	15.5	-7.99	Active	
C[C@@H](O)C12O[C@]13c1cc(O)c4c(c1N[C@H]2C#C/C=C\C#C[C@H]3O)C(=O)c1c(O)cccc1C4=O (stereo partly specified)	0.006	0.07	0.06	1.4	0.009	75.5	0.2	-8.31	Active	
COc1ccc2c(c1O)C(=O)c1c3c(cc(O)c1C2=O)[C@@]12O[C@@]1([C@](C)(O)[C@H](O)C(=O)O)[C@H](C#C/C=C\C#C[C@H]2O)N3	0.24	0.6	10.1	158	1	760	6.8	-8.48		Activity [30]: Active; Activity [31]: Active; Activity [32]: Active; Activity [33]: Active; Activity [7]: inactive; Activity [34]: Active; Activity [35]: Active
O=C1c2cccc(O)c2C(=O)c2c3c(cc(O)c21)[C@@]12O[C@@]1([C@H](O)CO)[C@H](C#C/C=C\C#C[C@H]2O)N3	0.01	0.2	0.2	13.5	0.02	261	0.8	-8.41	Active	
BLEOMYCIN										Activity [36]: Active
